Experimental data as given in patent US20110293658A1, “USE OF INKT OR TLR AGONISTS FOR PROTECTING AGAINST OR TREATING A DISEASE SUCH AS ACUTE INFECTION OR CANCER” (LUDWIG INSTITUTE FOR CANCER RESEARCH LTD., priority 2008, published 2011).
Where “and” joins values, the source holds several entries; their conditions need not be identical. Equal values may be shown once.

What was measured:
[1] = system: BM derived MDSC; assay: OT-I proliferation assay with BM derived MDSC; type: cell-based, mouse; settings: MDSC pulsed with α-GalCer in the presence of BM resident iNKT cells from WT mice
[2] = system: ARG1; assay: ARG1 activity of α-GalCer pulsed MDSC (urea release); type: cell-based, mouse; settings: MDSC pulsed with 100 ng α-GalCer in the presence of iNKT cells
Protocol: (§1) (A) Loss of ARG1 and NOS2 activity in α-GalCer pulsed MDSC incubated with BM derived iNKT cells. MDSC were treated with α-GalCer in the presence of iNKT cells and collected at different time points. ARG1 and NOS2 activities were measured using a colorimetric assay to evaluate urea and nitrate/nitrite release, respectively (De Santo et al. 2005. Proc Natl Acad Sci USA 102:4185-4190. Serafini et al. 2006. J Exp Med 203:2691-2702). An ELISA was used to evaluate IL-12p40 production. Values are shown as a percentage of time point 0. The maximum amount of urea released by untreated MDSC (1×10^6) was 91.7 μg. The maximum amount of […] measured in the supernatant of untreated MDSC was 120 μM. The maximum amount of IL-12p40 was 200 ng/ml.
(§2) Measuring activity of MDSC enzymes. ARG1 and NOS2 activities of α-GalCer pulsed BM-derived MDSC co-cultured with BM derived iNKT cells were assessed at different time points. NOS2 activity was measured from supernatants by Griess reaction, as the amount of NO3- and NO2-produced using a nitrate/nitrite assay kit (Cayman Chemicals) (Proc Natl Acad Sci USA 102:4185-4190). ARG1 activity was measured in cell lysates, as previously described (Proc Natl Acad Sci USA 102:4185-4190).

[3] = system: NOS2; assay: NOS2 activity of α-GalCer pulsed MDSC (nitrate/nitrite release); type: cell-based, mouse; settings: MDSC pulsed with 100 ng α-GalCer in the presence of iNKT cells
Protocol: as §1, §2

[4] = system: IL-12p40; assay: IL-12p40 production by MDSC (ELISA); type: cell-based, mouse; settings: MDSC pulsed with 100 ng α-GalCer in the presence of iNKT cells
[5] = system: IL-23 and IL-12p70; assay: IL-23 and IL-12p70 secretion by α-GalCer pulsed MDSC; type: cell-based, mouse; settings: MDSC pulsed with α-GalCer in the presence of iNKT cells; data not shown
[6] = system: BM derived MDSC; assay: iNKT cell dependent lysis of α-GalCer pulsed MDSC; type: cell-based, mouse; settings: MDSC pulsed with 100 ng of α-GalCer
Protocol: CFSE labelled BM derived MDSC were either pulsed or not pulsed with α-GalCer and incubated with CD11c and Gr-1 depleted BM cultures, which contain iNKT cells.

[7] = system: BM derived MDSC; assay: Phenotypic analysis of treated MDSC (FACS); type: cell-based, mouse
[8] = system: CD11b+ cells from IAV infected individuals; type: cell-based, human; settings: α-GalCer 100 ng/ml in presence of iNKT cells at MDSC:iNKT ratio 1:0.25, or ARG1 and NOS2 inhibitors; DC:CD11b+ 1:1
[9] = system: human MDSC; assay: iNKT cell dependent killing of α-GalCer pulsed human MDSC (Propidium Iodide); type: cell-based; settings: α-GalCer 100 ng/ml, MDSC:iNKT cell ratio of 1:0.25, 24 h
Protocol: (B) Conditions to prevent lysis of α-GalCer pulsed human MDSC by iNKT cells. Human MDSC (0.5×10^6) were treated with α-GalCer (100 ng/ml) and co-cultured with increasing numbers of iNKT cells for 24 h. MDSC were stained with Propidium Iodide to calculate the percentage of iNKT cell dependent MDSC killing.

[10] = system: iNKT cells; assay: IFN-γ release from iNKT cells incubated with α-GalCer pulsed CD11b+ cells; type: cell-based, human; settings: α-GalCer pulsed CD11b+ cells from IAV infected patients, 24 h
Protocol: (C) iNKT cells are activated by α-GalCer pulsed CD11b^+ cells from IAV infected patients. IFN-γ release from iNKT cells incubated for 24 h with α-GalCer pulsed CD11b^+ cells, derived from the IAV infected patients and healthy controls described in FIG. 7. Data represent the average of 3 replicates ±S.D.

[11] = system: EG7 cells (EL4 tumor cell line transfected with ovalbumin cDNA); design: species or system C57 BL/6 mice; settings: mouse, in vivo, iv
[12] = system: CD11bCD15 positive cells; assay: Melan-A priming experiments with CD11bCD15 positive cells from melanoma patients; type: cell-based, human; settings: CD11bCD15 positive cells pulsed with alphaGalCer 100 ng or Threitolceramide 200 ng
Protocol: CD11bCD15 positive cells were pulsed with either alphaGalCer (100 ng) or Threitolceramide (200 ng) for 2 hours and then incubated with autologous iNKT cells overnight before adding autologous DC pulsed with Melan-A26-35 peptide and autologous CD11bCD15 cell depleted total leukocytes.
Experiments in FIG. 29 were carried out using the same conditions as shown in the right column of FIG. 28 (i.e. in the presence of iNKT cells and alphaGalCer pulsed CD11bCD15 positive cells) in the presence of either blocking anti CD1d (middle column) or blocking anti CD40 (right column) antibodies.
In order to assess whether secretion of IL-10 is contributing to the suppressive activity of CD11bCD15 positive cells, expansion of Melan-A26-35 specific T cell responses as assessed in the presence or absence of blocking anti 11-10 receptor antibodies. In the left hand panel of FIG. 31, expansion of Melan-A26-35 specific T cells was assessed using total leukocytes from which CD11b-CD15+ cells were removed (2.33%). Addition of CD11bCD15 positive cells reduced the frequency of Melan-A26-35 specific T cells (0.83%) (central panel).
Purification of CD11b/CD15+ cells. Since CD15 CD11b positive cells have granulocyte density, it is important to purify them without using density gradients, such as Ficol. Red blood cells are lysed from whole blood, using red lysis cell buffer and anti CD11b/CD15 specific antibodies are added to the leukocytes for FACS guided cell sorting.
Melan-A priming experiments. DCs were generated by culturing monocytes for 4 days in RPMI/10% FCS supplemented with 50 ng/ml GM-CSF (Pepro-tech) and 1,000 U/ml IL-4 (Salio, M., et al. 2007. Proc. Natl. Acad. Sci. U.S.A. 104:20490-20495). […] After 2 weeks, cells were stained with HLA-A2 tetramers loaded with melan-A26-35 peptide and anti CD8.
Harnessing iNKT cells. The protocol to purify Cdl lbCd15 cells and differentiate DC is similar to the protocol described earlier. Cdl lbCd15 cells were pulsed with either alphaGalCer (100 ng) or with threitolceramide (200 ng) and then incubated with iNKT cells for 12 hours. Cells were then washed pulsed with the melan-A26-35 peptide and incubated with total leukocytes. After 2 weeks in culture, cells were stained with HLA-A2 melan-A tetramers and anti-CD8 antibodies.

CCCCCCCCCCCCCCCCCCCCCCCCCC(=O)N[C@@H](CO[C@H]1O[C@H](CO)[C@H](O)[C@H](O)[C@H]1O)[C@H](O)[C@H](O)CCCCCCCCCCCCCC [α-GalCer, α-Galactosylceramide]
MDSC suppression of CFSE labelled OT-I proliferation [1]: completely relieved | ARG1 activity [2]: reduction | NOS2 activity [3]: reduction | secretion of IL-12 p40 [4]: enhanced secretion | secretion of IL-23 and IL-12p70 [5]: No secretion | lysis of pulsed MDSC by iNKT cells [6]: not lysed | differentiation of CD11c- MDSC (CD11c expression) ([7]; CFSE labelled α-GalCer pulsed MDSC incubated with iNKT cells, 48 h): differentiation into CD11c^+ cells | CD86 and MHC class II expression ([7]; α-GalCer pulsed MDSC incubated with iNKT cells, data not shown): up-regulation | suppressive activity of CD11b+ cells collected from IAV infected individuals (MLR proliferation) [8]: could be reduced | iNKT cell dependent MDSC lysis [9]: did not cause iNKT cell dependent MDSC lysis | activation of iNKT cells (IFN-γ release) [10]: activated | frequency of MDSCs (CD11b+Gr1+ positive cells) [11]: lower frequency | frequency of Ova specific T cell responses (H-2Kb tetramer staining) [11]: higher frequency | tumor size / tumor regression [11]: Tumour regression | frequency of Melan-A26-35 specific T cells ([12]; in the absence of added iNKT cells, unpulsed 0.34%): 0.32% | frequency of Melan-A26-35 specific T cells ([12]; with addition of autologous iNKT cells): 3.05% and 6.42%
